This is an account of results in patent publication US20100076011A1, “Enantiomer-Pure Hexahydro-Pyrrolocyclopenta-Pyridine Derivatives” (priority 2004, published 2010).

Structures are written as SMILES. Structures can show the parent of a compound that is named as a salt. Where two headings read alike, the source gives them in different places. A value given as a limit tells only on which side of the number the result lay.

Series [1] deals with T1, α4β2-subtype (central nicotine receptor) (Rattus norvegicus, UniProt P09483+P12390).
T1 construct: Membrane-enriched fractions of rat brain without cerebellum; tissue ABS Inc. Wilmington, Del; host or cells: rat brain without cerebellum, membrane-enriched fractions
As to the kind of experiment: Radioligand assay: [3H] cytisin binding to the α4β2-subtype in rat brain membranes. As to the method:
(2 samples each). The non-specific binding was determined with 10 μM (−)nicotine. The incubation was […] by vacuum filtration through a Whatman GF/C filter which previously had been humidified with 0.5% polyethylene imine. Bound radioactivity was collected on Millipore Multiscreen plates FB with a Packard Cell Harvester, and determined with a Packard Topcount Microplate Beta Counter. IC50 values were determined by non-linear regression, and from this the Ki values by means of the Cheng-Prusoff equation, wherein Ki=IC50/1+[ligand]/KID. The mean Ki values were obtained from at least three individual determinations.

T1 sequence (P09483 31-630): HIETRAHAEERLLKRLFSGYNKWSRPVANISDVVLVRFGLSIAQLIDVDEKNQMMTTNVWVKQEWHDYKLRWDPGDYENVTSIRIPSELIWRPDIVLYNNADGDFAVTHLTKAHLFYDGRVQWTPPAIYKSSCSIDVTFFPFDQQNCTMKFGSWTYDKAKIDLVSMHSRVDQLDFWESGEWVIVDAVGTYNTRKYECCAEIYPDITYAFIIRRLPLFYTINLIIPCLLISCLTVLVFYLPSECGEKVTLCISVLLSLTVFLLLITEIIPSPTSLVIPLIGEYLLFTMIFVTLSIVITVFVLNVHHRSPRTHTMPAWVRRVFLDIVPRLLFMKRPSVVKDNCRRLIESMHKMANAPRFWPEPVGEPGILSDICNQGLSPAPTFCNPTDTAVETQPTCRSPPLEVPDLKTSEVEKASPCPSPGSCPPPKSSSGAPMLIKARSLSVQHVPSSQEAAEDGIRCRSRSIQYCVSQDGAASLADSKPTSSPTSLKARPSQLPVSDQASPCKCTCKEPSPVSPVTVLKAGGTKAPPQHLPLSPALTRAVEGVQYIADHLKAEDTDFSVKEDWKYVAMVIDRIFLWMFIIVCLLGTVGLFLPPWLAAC
T1 sequence (P12390 25-500): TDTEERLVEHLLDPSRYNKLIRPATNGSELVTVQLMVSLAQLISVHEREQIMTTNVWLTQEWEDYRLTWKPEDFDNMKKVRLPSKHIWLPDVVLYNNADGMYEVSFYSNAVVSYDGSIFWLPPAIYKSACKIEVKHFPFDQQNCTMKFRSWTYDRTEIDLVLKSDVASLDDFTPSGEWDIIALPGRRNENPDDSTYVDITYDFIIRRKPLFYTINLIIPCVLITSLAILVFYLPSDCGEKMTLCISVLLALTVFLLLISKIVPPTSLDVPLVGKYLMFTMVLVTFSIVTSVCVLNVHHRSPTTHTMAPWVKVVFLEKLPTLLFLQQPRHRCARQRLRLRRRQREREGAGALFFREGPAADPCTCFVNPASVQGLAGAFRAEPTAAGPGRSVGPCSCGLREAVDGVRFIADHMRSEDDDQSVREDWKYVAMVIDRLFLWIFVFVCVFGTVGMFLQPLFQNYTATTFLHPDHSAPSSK

In turn, `c1cnc2c(c1)C1NCCC1C2` (single isomer, unassigned; (-)) (as salt: hydrochloride) [Example 2, (−)-[3aα,8bα]-1,2,3,3a,4,8b-Hexahydropyrrolo-[2′,3′:3,4]cyclopenta[1,2-b]pyridine-dihydrochloride] registered a melting point of 95 to 97 °C.

The compound `c1cc2c(cn1)[C@H]1NCC[C@H]1C2` (as salt: hydrochloride) [Example 6, (−)-[3aR-(3aα,8bα)]-1,2,3,3a,4,8b-Hexahydropyrrolo[3′,2′:4,5]-cyclopenta[1,2-c]pyridinodihydrochloride] displayed a melting point of 94 to 95 °C. Regarding `CN1CC[C@@H]2Cc3ccncc3[C@@H]21` [Example 7, (+)-[3aS-(3aα,8bα)]-1,2,3,3a,4,8b-Hexahydro-1-methyl-pyrrolo[3′,2′:4,5]-cyclopenta[1,2-c]pyridinodihydrochloride], the Ki in series [1] amounted to 1.67 µM. On to `CN1CCC2Cc3ncccc3C21` (single isomer, unassigned; (-)) [Example 3, (−)-[3aα,8bα]-1,2,3,3a,4,8b-Hexahydro-1-methyl-pyrrolo[2′,3′:3,4]cyclopenta[1,2-b]pyridine-dihydrochloride], for which affinity in series [1] was put at a Ki of 0.199 µM. `c1cnc2c(c1)C1NCCC1C2` (single isomer, unassigned; (+)) [Example 1, (+)-[3aα,8bα]-1,2,3,3a,4,8b-Hexahydropyrrolo-[2′,3′:3,4]cyclopenta[1,2-b]pyridine-dihydrochloride] showed an inhibition constant Ki in series [1] of 2.43 µM. As to `CN1CCC2Cc3ncccc3C21` (single isomer, unassigned; (+)) [Example 4, (+)-[3aα,8bα]-1,2,3,3a,4,8b-Hexahydro-1-methyl-pyrrolo[2′,3′:3,4]cyclopenta[1,2-b]pyridinedihydrochloride], the Ki in series [1] is > 1000 µM.

For the compound `c1cc2c(cn1)[C@@H]1NCC[C@@H]1C2` [Example 5, (+)-(3aS-(3aα,8bα)]-1,2,3,3a,4,8b-Hexahydropyrrolo[3′,2′:4,5]-cyclopenta[1,2-c]-pyridinodihydrochloride], in series [1] ([3H] cytisin 0.75 nM, rat brain membranes without cerebellum, 75 min at 4° C., mean of at least three determinations, Ki from IC50 by Cheng-Prusoff, read-out: Ki Values of the Enantiomer Pairs), the inhibitory constant (Ki) is 1.11 µM.

`c1cc2c(cn1)[C@H]1NCC[C@H]1C2` [Example 6, (−)-[3aR-(3aα,8bα)]-1,2,3,3a,4,8b-Hexahydropyrrolo[3′,2′:4,5]-cyclopenta[1,2-c]pyridinodihydrochloride] had a Ki in series [1] of 0.0152 µM. With `c1cnc2c(c1)C1NCCC1C2` (single isomer, unassigned; (-)) [Example 2, (−)-[3aα,8bα]-1,2,3,3a,4,8b-Hexahydropyrrolo-[2′,3′:3,4]cyclopenta[1,2-b]pyridine-dihydrochloride], the Ki in series [1] is > 1000 µM. The same measure, in the same setting: with `CN1CC[C@H]2Cc3ccncc3[C@H]21` [Example 8, (−)-[3aR-(3aα,8bα)]-1,2,3,3a,4,8b-Hexahydro-1-methylpyrrolo[3′,2′:4,5]cyclopenta[1,2-c]pyridinodihydrochloride] the figure was 0.027 µM.

By melting point is commonly meant the temperature of the solid-liquid transition. By Ki is commonly meant the dissociation constant of the complex between target and ligand, obtained from inhibition or displacement.
